Data from patent US12594284B2, “Combination of micronutrients to stimulate the endogenous production of hydrogen sulfide (H2S)” (priority 2020, dated 2026).

Key:
reductive stress = experiment: Reductive stress induced by vitamin C in healthy male subjects (plasma NADH, erythrocyte GSH); type: in vivo, human; settings: vitamin C 2 gr per day alone, 1 week
Excerpt: Vitamin C caused a subclinical reductive stress as reported by a 40% increase of plasma NADH and 31% and 63% increase of erythrocyte GSH and GSH to GSSG ratio, respectively. […] Thus, the aforementioned composition prevented the reductive stress induced by a powerful reducing agent.

[1] = test system: endogenous production of H2S (CBS, CSE, 3MST); settings: subjects with chronically low-vitamin B6 status; cited from earlier work
[2] = test system: endogenous production of H2S (CBS, CSE, 3MST); experiment: Inventor's observations on administration of the micronutrients to humans (H2S production markers, redox, homocysteine, insulin resistance); type: in vivo, human; settings: for triggering of the H2S system by form of vitamin B6: subjects possibly with genetic weakness of vitamin B6 activation and recycling
[3] = test system: blood pressure of pre-hypertensive patients; settings: cited from earlier work
[4] = taurine added to L-cystine supplementation
[5] = taurine 1.6 gr per day, 12 weeks
[6] = vitamin B6 added to taurine and L-cystine supplementation

O=C1O[C@H]([C@@H](O)CO)C(O)=C1O [Vitamin C, vitamin C]
increase of GSH to GSSG ratio (reductive stress): 63% | increase of erythrocyte GSH (reductive stress): 31% | increase of plasma NADH (reductive stress): 40%

Cc1ncc(CO)c(CO)c1O [pyridoxine, reference compound]
plasma concentrations of lanthionine and homolanthionine [1]: did not respond | triggering of the H2S system by form of vitamin B6 [2]: failed to trigger the system in some subjects

Cc1ncc(COP(=O)(O)O)c(C=O)c1O [pyridoxal-5-phosphate]
triggering of the H2S system by form of vitamin B6 [2]: responded normally

NCCS(=O)(=O)O [taurine]
daily amounts that do not produce any further added effect [2, 4]: > 2000 mg | daily dose at which increased H2S production compared to L-cystine alone is already measured [2, 4]: 100 mg per day | expression of CBS and CSE ([3]; human, in vivo): induced the expression of CBS and CSE | circulating H2S [3, 5]: increase of circulating H2S | reduction of diastolic blood pressure [3, 5]: 3.4 mm Hg | reduction of systolic blood pressure [3, 5]: 4.6 mm Hg

Cc1ncc(CO)c(CO)c1O.Cl [vitamin B6]
CSE activity ([2]; supra-physiological amounts of vitamin B6): effective in activating CSE activity | daily amounts that do not produce any further added effect [2, 6]: > 100 mg | daily dose at which increased H2S production compared to L-cystine and taurine is already measured [2, 6]: 2 mg per day

N[C@@H](CS)C(=O)O [cysteine]
H2S levels ([2]; isolated cysteine administration): fail to increase H2S levels
